Reference: patent publication EP2520566A1, “New Pharmaceutical Compounds” (Orion Corporation, priority 2011, dated 2012)

Target: TRPA1 (Homo sapiens, UniProt O75762)
Assay: Determination of TRPA1 activity in vitro (TRPA1 antagonism in vitro), procedure of Wei et al., Anesthesiology 111 (2009) 147-154
Assay type: cell-based
Source text: EXPERIMENT 1: Determination of TRPA1 activity in vitro
The illustrative examples of the present invention were screened for TRPA1 activity according to a procedure described in Wei et al., Anesthesiology 111 (2009) 147-154. Table 1. TRPA1 antagonism in vitro.

TRPA1, sequence (O75762 whole entry): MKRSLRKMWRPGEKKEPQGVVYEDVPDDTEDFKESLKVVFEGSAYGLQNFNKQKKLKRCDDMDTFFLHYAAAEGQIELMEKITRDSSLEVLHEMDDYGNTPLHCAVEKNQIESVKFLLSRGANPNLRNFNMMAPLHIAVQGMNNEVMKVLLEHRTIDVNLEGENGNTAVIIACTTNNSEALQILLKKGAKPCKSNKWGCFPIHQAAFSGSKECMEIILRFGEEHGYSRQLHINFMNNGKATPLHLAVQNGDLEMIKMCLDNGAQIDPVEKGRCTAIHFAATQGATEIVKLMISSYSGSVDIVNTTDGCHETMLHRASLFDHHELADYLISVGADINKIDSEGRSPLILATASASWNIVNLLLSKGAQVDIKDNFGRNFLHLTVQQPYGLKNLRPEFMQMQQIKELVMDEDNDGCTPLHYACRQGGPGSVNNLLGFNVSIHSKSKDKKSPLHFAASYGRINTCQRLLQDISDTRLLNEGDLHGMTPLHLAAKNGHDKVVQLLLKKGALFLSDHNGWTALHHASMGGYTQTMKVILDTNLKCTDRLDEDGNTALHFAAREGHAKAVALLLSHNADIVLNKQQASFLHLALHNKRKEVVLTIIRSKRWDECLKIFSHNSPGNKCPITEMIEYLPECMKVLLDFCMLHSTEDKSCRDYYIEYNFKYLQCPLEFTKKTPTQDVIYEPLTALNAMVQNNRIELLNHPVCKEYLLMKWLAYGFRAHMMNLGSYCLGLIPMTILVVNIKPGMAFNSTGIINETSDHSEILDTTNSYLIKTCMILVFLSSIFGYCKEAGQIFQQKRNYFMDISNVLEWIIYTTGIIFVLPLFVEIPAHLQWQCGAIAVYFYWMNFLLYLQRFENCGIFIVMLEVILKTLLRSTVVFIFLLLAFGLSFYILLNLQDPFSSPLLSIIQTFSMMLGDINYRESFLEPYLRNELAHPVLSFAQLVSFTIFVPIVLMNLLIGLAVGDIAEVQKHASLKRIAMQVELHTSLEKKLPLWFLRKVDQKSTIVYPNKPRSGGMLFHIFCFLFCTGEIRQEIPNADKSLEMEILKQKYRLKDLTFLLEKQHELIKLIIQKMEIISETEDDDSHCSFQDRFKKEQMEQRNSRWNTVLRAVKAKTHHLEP

IC50	Compound
11.6 µM	O=C(NCc1ccc(Br)cc1)[C@@H]1CCCN1S(=O)(=O)c1ccc(F)cc1 [Example 37, (S)-N-(4-bromobenzyl)-1-(4-fluorophenylsulfonyl)pyrrolidine-2-carboxamide]
5.3 µM	O=C(NCc1ccc(Br)cc1F)[C@@H]1CCCN1S(=O)(=O)c1ccc(F)cc1 [Example 9, (S)-N-(4-bromo-2-fluorobenzyl)-1-(4-fluorophenylsulfonyl)pyrrolidine-2-carboxamide]
13 µM	O=C(NCc1ccc(C(F)(F)F)cc1)[C@@H]1CCCN1S(=O)(=O)c1ccccc1 [Example 17, (S)-1-(Phenylsulfonyl)-N-(4-(trifluoromethyl)benzyl)pyrrolidine-2-carboxamide]
24.1 µM	O=C(NCc1cc(F)cc(OC(F)F)c1)[C@@H]1C[C@@H](F)CN1S(=O)(=O)c1ccc(F)cc1 [Example 18, (2S,4R)-N-(3-(difluoromethoxy)-5-fluorobenzyl)-4-fluoro-1-(4-fluorophenylsulfonyl)pyrrolidine-2-carboxamide]
26 µM	O=C(NCc1ccnc(OCCC(F)(F)F)c1)[C@@H]1C[C@@H](F)CN1S(=O)(=O)c1ccc(F)c(F)c1 [Example 14, (2S,4R)-1-(3,4-Difluorophenylsulfonyl)-4-fluoro-N-((2-(3,3,3-trifluoropropoxy)pyridin-4-yl)methyl)pyrrolidine-2-carboxamide]
18.6 µM	O=C(NCc1cccc(Br)c1)[C@@H]1CCCN1S(=O)(=O)c1ccccc1 [Example 2, (S)-N-(3-bromobenzyl)-1-(phenylsulfonyl)pyrrolidine-2-carboxamide]
7.7 µM	O=C(NCc1cccc(C2CC2)c1)[C@@H]1CCCN1S(=O)(=O)c1ccc(F)cc1 [Example 23, (S)-N-(3-cyclopropylbenzyl)-1-(4-fluorophenylsulfonyl)pyrrolidine-2-carboxamide]
15.6 µM	CC(C)Nc1cc(CNC(=O)[C@@H]2C[C@@H](F)CN2S(=O)(=O)c2ccccc2)ccc1Cl [Example 21, (2S,4R)-N-(4-chloro-3-(isopropylamino)benzyl)-4-fluoro-1-(phenylsulfonyl)pyrrolidine-2-carboxamide]
37 µM	O=C(NCc1ccnc(OCCC(F)(F)F)c1)[C@@H]1C[C@@H](F)CN1S(=O)(=O)c1ccc(F)cc1 [Example 26, (2S,4R)-4-Fluoro-1-(4-fluorophenylsulfonyl)-N-((2-(3,3,3-trifluoropropoxy)pyridin-4-yl)methyl)pyrrolidine-2-carboxamide]
16.3 µM	O=C(NCc1ccc(Br)cc1F)[C@@H]1C[C@@H](F)CN1S(=O)(=O)c1ccc(F)cc1 [Example 12, (2S,4R)-N-(4-bromo-2-fluorobenzyl)-4-fluoro-1-(4-fluorophenyl-sulfonyl)pyrrolidine-2-carboxamide]
12.5 µM	O=C(NCc1ccc(Cl)cc1)[C@@H]1CCCN1S(=O)(=O)c1ccc(F)cc1 [Example 20, (S)-N-(4-chlorobenzyl)-1-(4-fluorophenylsulfonyl)pyrrolidine-2-carboxamide]
13.6 µM	CC(C)CCOc1cncc(CNC(=O)[C@@H]2C[C@@H](F)CN2S(=O)(=O)c2ccc(F)cc2)c1 [Example 29, (2S,4R)-4-Fluoro-1-(4-fluorophenylsulfonyl)-N-((5-(isopentyloxy)pyridine-3-yl)methyl)pyrrolidine-2-carboxamide]
17.4 µM	CC(C)CSc1cc(CNC(=O)[C@@H]2C[C@@H](F)CN2S(=O)(=O)c2ccc(F)cc2)ccn1 [Example 36, (2S,4R)-4-Fluoro-1-(4-fluorophenylsulfonyl)-N-((2-(isobutylthio)pyridin-4-yl)methyl)pyrrolidine-2-carboxamide]
9.3 µM	CC(C)c1cc(CNC(=O)[C@@H]2CCCN2S(=O)(=O)c2ccccc2)ccc1C#N [Example 35, (S)-N-(4-cyano-3-isopropylbenzyl)-1-(phenylsulfonyl)pyrrolidine-2-carboxamide]
14.5 µM	O=C(NCc1ccc(C(F)(F)F)cc1)[C@@H]1C[C@@H](F)CN1S(=O)(=O)c1ccc(F)cc1 [Example 8, (2S,4R)-4-Fluoro-1-(4-fluorophenylsulfonyl)-N-(4-(trifluoromethyl)benzyl)pyrrolidine-2-carboxamide]
9.8 µM	CCc1cc(CNC(=O)[C@@H]2CCCN2S(=O)(=O)c2ccc(F)cc2)ccc1C#N [Example 5, (S)-N-(4-cyano-3-ethylbenzyl)-1-(4-fluorophenylsulfonyl)pyrrolidine-2-carboxamide]

IC50	Compound
4.4 µM	CCCc1cc(CNC(=O)[C@@H]2CCCN2S(=O)(=O)c2ccccc2)ccc1C#N [Example 11, (S)-N-(4-cyano-3-propylbenzyl)-1-(phenylsulfonyl)pyrrolidine-2-carboxamide]
33.8 µM	O=C(NCc1cc(C(F)(F)F)ccn1)[C@@H]1CCCN1S(=O)(=O)c1ccc(F)cc1 [Example 27, (S)-1-(4-Fluorophenylsulfonyl)-N-((4-(trifluoromethyl)pyridin-2-yl)methyl)pyrrolidine-2-carboxamide]
12.5 µM	O=C(NCc1cc(OCC(F)(F)F)ccn1)[C@@H]1CCCN1S(=O)(=O)c1ccc(F)c(F)c1 [Example 32, (S)-1-(3,4-Difluorophenylsulfonyl)-N-((4-(2,2,2-trifluoroethoxy)pyridin-2-yl)methyl)pyrrolidine-2-carboxamide]
17.3 µM	O=C(NCc1cc(OCC(F)(F)F)ccn1)[C@@H]1CCCN1S(=O)(=O)c1ccc(F)cc1 [Example 7, (S)-1-(4-Fluorophenylsulfonyl)-N-((4-(2,2,2-trifluoroethoxy)pyridin-2-yl)methyl)pyrrolidine-2-carboxamide]
16.8 µM	CCc1ccc(CNC(=O)[C@@H]2CCCN2S(=O)(=O)c2ccc(F)cc2)cc1 [Example 38, (S)-N-(4-ethylbenzyl)-1-(4-fluorophenylsulfonyl)pyrrolidine-2-carboxamide]
18.5 µM	O=C(NCc1cc(OCC(F)(F)F)ccn1)[C@@H]1CCCN1S(=O)(=O)c1cc(F)cc(F)c1 [Example 33, (S)-1-(3,5-Difluorophenylsulfonyl)-N-((4-(2,2,2-trifluoroethoxy)pyridine-2-yl)methyl)pyrrolidine-2-carboxamide]
17 µM	O=C(NCc1cccc(C(F)(F)F)c1)[C@@H]1CCCN1S(=O)(=O)c1ccccc1 [Example 24, (S)-1-(Phenylsulfonyl)-N-(3-(trifluoromethyl)benzyl)pyrrolidine-2-carboxamide]
13.6 µM	O=C(NCc1cccc(C2CC2)c1)[C@@H]1CCCN1S(=O)(=O)c1ccccc1 [Example 22, (S)-N-(3-cyclopropylbenzyl)-1-(phenylsulfonyl)pyrrolidine-2-carboxamide]
5.1 µM	CCCOc1cccc(CNC(=O)[C@@H]2CCCN2S(=O)(=O)c2ccccc2)c1 [Example 6, (S)-1-(Phenylsulfonyl)-N-(3-propoxybenzyl)pyrrolidine-2-carboxamide]
16.9 µM	O=C(NCc1ccnc(OCCC(F)(F)F)c1)[C@@H]1CCCN1S(=O)(=O)c1cc(F)cc(F)c1 [Example 10, (S)-1-(3,5-Difluorophenylsulfonyl)-N-((2-(3,3,3-trifluoropropoxy)pyridin-4-yl)methyl)pyrrolidine-2-carboxamide]
10.4 µM	CCCC(=O)c1cccc(CNC(=O)[C@@H]2CCCN2S(=O)(=O)c2ccc(F)cc2)c1 [Example 3, (S)-N-(3-butyrylbenzyl)-1-(4-fluorophenylsulfonyl)pyrrolidine-2-carboxamide]
5.9 µM	CCOc1cc(F)cc(CNC(=O)[C@@H]2CCCN2S(=O)(=O)c2ccc(F)cc2)c1 [Example 15, (S)-N-(3-ethoxy-5-fluorobenzyl)-1-(4-fluorophenylsulfonyl)pyrrolidine-2-carboxamide]
9.3 µM	CC(C)CSc1cc(CNC(=O)[C@@H]2CCCN2S(=O)(=O)c2ccc(F)cc2)ccn1 [Example 19, (S)-1-(4-Fluorophenylsulfonyl)-N-((2-(isobutylthio)pyridin-4-yl)methyl)pyrrolidine-2-carboxamide]
11.3 µM	CC(C)(C)COc1cc(CNC(=O)[C@@H]2C[C@@H](F)CN2S(=O)(=O)c2ccc(F)cc2)ccn1 [Example 4, (2S,4R)-4-Fluoro-1-(4-fluorophenylsulfonyl)-N-((2-(neopentyloxy)pyridin-4-yl)methyl)pyrrolidine-2-carboxamide]
14.1 µM	CCCNc1cccc(CNC(=O)[C@@H]2CCCN2S(=O)(=O)c2ccc(F)cc2)c1 [Example 39, (S)-1-(4-Fluorophenylsulfonyl)-N-(3-(propylamino)benzyl)pyrrolidine-2-carboxamide]

Compound	IC50
O=C(NCc1cccc(S(F)(F)(F)(F)F)c1)[C@@H]1CCCN1S(=O)(=O)c1ccccc1 [Example 25]	6.7 µM
CCCc1cc(CNC(=O)[C@@H]2C[C@@H](F)CN2S(=O)(=O)c2ccccc2)ccc1C#N [Example 34, (2S,4R)-N-(4-cyano-3-propylbenzyl)-4-fluoro-1-(phenylsulfonyl) pyrrolidine-2-carboxamide]	12.6 µM
O=C(NCc1cc(F)cc(OC(F)F)c1)[C@@H]1CCCN1S(=O)(=O)c1ccc(F)cc1 [Example 13, (S)-N-(3-(difluoromethoxy)-5-fluorobenzyl)-1-(4-fluorophenylsulfonyl) pyrrolidine-2-carboxamide]	11.5 µM
COc1cc(Cl)cc(CNC(=O)[C@@H]2CCCN2S(=O)(=O)c2ccc(F)cc2)c1 [Example 16, (S)-N-(3-chloro-5-methoxybenzyl)-1-(4-fluorophenylsulfonyl) pyrrolidine-2-carboxamide]	5.4 µM
CC(C)CCOc1cncc(CNC(=O)[C@@H]2CCCN2S(=O)(=O)c2ccc(F)cc2)c1 [Example 28, (S)-1-(4-Fluorophenylsulfonyl)-N-((5-(isopentyloxy)pyridin-3-yl)methyl) pyrrolidine-2-carboxamide]	4.1 µM
CC(C)COc1ccnc(CNC(=O)[C@@H]2CCCN2S(=O)(=O)c2ccc(F)cc2)c1 [Example 30, (S)-1-(4-Fluorophenylsulfonyl)-N-((4-isobutoxypyridin-2-yl)methyl) pyrrolidine-2-carboxamide]	10.5 µM
CSCCOc1cccc(CNC(=O)[C@@H]2CCCN2S(=O)(=O)c2ccc(F)cc2)c1 [Example 1, (S)-1-(4-Fluorophenylsulfonyl)-N-(3-(2-(methylthio)ethoxy)benzyl) pyrrolidine-2-carboxamide]	4 µM
